{
  "source": "patent US8410164B2",
  "about": "“Reagent for measurement of active oxygen” (The University of Tokyo, priority 2008, dated 2013)",
  "key": {"[1]": {"test": "Fluorescence quantum yield (Φf)", "type": "physicochemical", "method": "(§1) The compound 5 (APC) is a substantially non-fluorescent (Φf=0.007) substance having a moiety that specifically reacts with reactive oxygen species in the molecule. This substance specifically reacts with reactive oxygen species, and thereby becomes calcein to emit fluorescence. The tetracetoxymethyl ester of this calcein and diacetyl ester of fluorescein were taken up by HL-60 cells, and intracellular retentivity of calcein and fluorescein was evaluated."}, "HL-60 cells [2]": {"test_system": "HL-60 cells", "test": "Intracellular retentivity of calcein and fluorescein taken up by HL-60 cells as esters", "type": "cell-based", "method": "as §1"}, "[3]": {"test": "pKa comparison of calcein and fluorescein", "type": "physicochemical"}, "HL-60 cells [4]": {"test_system": "HL-60 cells", "test": "Intracellular retentivity of reaction products of APF and APC-AM in HL-60 cells by FACS", "type": "cell-based", "details": "10 μM loaded 60 minutes, 100 μM hydrogen peroxide 15 minutes", "method": "Intracellular retentivities of the reaction products produced from APF and APC with the reactive oxygen species were compared in a similar manner. APF and APC-AM (10 μM, 1.0% dimethylformamide (cosolvent) for the both) were loaded on the HL-60 cells for 60 minutes by adding them to the medium of the cells, and then the cells were stimulated with 100 μM hydrogen peroxide for 15 minutes. Then, fluorescence intensity was periodically measured (0 minute, 30 minutes, 60 minutes) by FACS. In FIG. 6, the graphs (A) to (C) show the results obtained with APF, and the graphs (D) to (F) show the results obtained with APC-AM. The graphs (A) and (D) show the results obtained immediately after the hydrogen peroxide stimulation, (B) and (E) show the results obtained 30 minutes after the stimulation, and (C) and (F) show the results obtained 60 minutes after the stimulation."}, "HeLa cells": {"test_system": "HeLa cells", "test": "Imaging of reactive oxygen species in living HeLa cells after sodium hypochlorite stimulation", "type": "cell-based", "details": "1.0 μM loaded for 15 minutes, 500 μM sodium hypochlorite", "method": "Imaging of reactive oxygen species in living cells was performed by using the compound 5 (APC). The compound 6 (APC-AM, 1.0 μM, 0.1% dimethylformamide (cosolvent)), which corresponds to APC esterified to increase cell membrane permeability, was loaded on the HeLa cells for 15 minutes by addition to the medium of the cells, and then the cells were stimulated with 500 μM sodium hypochlorite."}},
  "data": [
    {"smiles": "O=C(O)CN(CC(=O)O)Cc1cc2c(cc1O)Oc1cc(O)c(CN(CC(=O)O)CC(=O)O)cc1C21OC(=O)c2ccccc21", "note": "[calcein]", "values": [
      {"measurement": "Fluorescence quantum yield Φf", "setting": "[1]", "value": 0.793},
      {"measurement": "Fluorescence intensity in the HL-60 cells over time (intracellular retentivity)", "setting": "HL-60 cells [2]; after 60 minutes, loaded as tetracetoxymethyl ester", "value": "hardly decreased"},
      {"measurement": "pKa", "setting": "[3]", "value": "~5.4"}
    ]},
    {"smiles": "O=C1OC2(c3ccc(O)cc3Oc3cc(O)ccc32)c2ccccc21", "note": "[fluorescein]", "values": [
      {"measurement": "Fluorescence intensity in the HL-60 cells over time (intracellular retentivity), level remaining", "setting": "HL-60 cells [2]; after 15 minutes, loaded as diacetyl ester, fraction of the starting intensity", "value": "1/10"},
      {"measurement": "pKa", "setting": "[3]", "value": 6.4}
    ]},
    {"smiles": "Nc1ccc(Oc2ccc3c(-c4ccccc4C(=O)O)c4ccc(=O)cc-4oc3c2)cc1", "note": "[APF, aminophenylfluorescein]", "values": [
      {"measurement": "Fluorescence intensity by FACS immediately after hydrogen peroxide stimulation", "setting": "HL-60 cells [4]; 0 minute", "value": "increase of fluorescence intensity was observed"},
      {"measurement": "Fluorescence intensity by FACS 30 and 60 minutes after stimulation (intracellular retentivity of reaction product)", "setting": "HL-60 cells [4]; 30 and 60 minutes", "value": "detection thereof became difficult after 30 minutes"}
    ]},
    {"smiles": "CC(=O)OCOC(=O)CN(CC(=O)OCOC(C)=O)Cc1c(O)ccc2c1Oc1c(ccc(Oc3ccc([N+](=O)[O-])cc3)c1CN(CC(=O)OCOC(C)=O)CC(=O)OCOC(C)=O)C21OC(=O)c2ccccc21", "note": "(centres unmarked) [APC-AM, 3-Hydroxy-4,5-bis[N,N′-di(carboxymethyl)aminomethyl]-6-(4′-nitro)phenoxyfluorescein tetracetoxymethyl ester]", "values": [
      {"measurement": "Fluorescence in HeLa cells after sodium hypochlorite stimulation", "setting": "HeLa cells", "value": "Extremely intense fluorescence"}
    ]}
  ]
}
